Assay results: patent publication US9040255B2, “Use of diazolidinyl urea for anti-clumping of biological samples” (BIOCEPT, INC., priority 2010, dated 2015)

Test system: cell clumps in blood
Assay: Cell clumping of biological samples (blood) processed through a microfluidic device
Type: cell-based
Details: DU 2% final working concentration, incubated at room temperature for 30 minutes or overnight, compared with samples without DU (FIGS. 1-4)
Description: In this experiment, DU was dissolved in PBS to make an 80% (w/v) aqueous concentrated solution. The concentrated solution was then added to biological samples in such a way as to yield a final working concentration of 2%. Biological samples were gently mixed with DU solution to ensure equal distribution of DU, and the resulting mixture was incubated at room temperature for at least 30 minutes.
Samples were then processed according to pre-determined protocols.
FIG. 1 provides an example of samples without being treated with DU and processed through a microfluidic device. The white strands are cell clumps.
FIG. 2 provides an example of samples being treated with DU and processed through a microfluidic device (for this particular experiment, the sample and DU were incubated overnight).
FIG. 3 provides another example of samples without being treated with DU and processed through a microfluidic device.
FIG. 4 provides another example of samples being treated with DU and processed through a microfluidic device (for this particular experiment, the sample and DU were incubated for 30 minutes.

In the case of `O=C(NCO)N(CO)C1(CO)C(=O)NC(=O)N1CO` (stereo not shown) [DU, diazolidinyl urea], the “reduction of cellular clumping” value is reported as “great improvement for reducing cellular clumping”.
